Reference: the NIST ThermoML archive (doi:10.1021/je800579j)

Assay: xn = mol fraction of the nth substance listed
Conditions: Liquid, Pycnometric method

Cc1cccc(C)c1 [1,3-dimethylbenzene] + C1COCCO1
mass density [kg/m3]
Conditions | 288.15 K | 293.15 K | 298.15 K | 303.15 K | 308.15 K | 313.15 K | 318.15 K
x2 = 0 | 868.59 | 864.31 | 860.02 | 855.74 | 851.45 | 847.17 | 842.88
x2 = 0.0938 | 879.61 | 875.2 | 870.79 | 866.38 | 861.97 | 857.56 | 853.16
x2 = 0.1532 | 886.95 | 882.46 | 877.97 | 873.48 | 868.99 | 864.5 | 860.01
x2 = 0.2046 | 893.54 | 888.98 | 884.42 | 879.87 | 875.32 | 870.77 | 866.22
x2 = 0.2698 | 902.26 | 897.62 | 892.98 | 888.35 | 883.72 | 879.09 | 874.47
x2 = 0.3374 | 911.76 | 907.05 | 902.34 | 897.63 | 892.92 | 888.21 | 883.5
x2 = 0.4002 | 921.05 | 916.26 | 911.47 | 906.68 | 901.9 | 897.12 | 892.34
x2 = 0.4714 | 932.18 | 927.3 | 922.42 | 917.55 | 912.68 | 907.81 | 902.94
x2 = 0.5487 | 945 | 940.02 | 935.04 | 930.06 | 925.08 | 920.1 | 915.12
x2 = 0.63 | 959.44 | 954.33 | 949.22 | 944.11 | 939.01 | 933.91 | 928.81
x2 = 0.7182 | 976.23 | 970.98 | 965.73 | 960.49 | 955.25 | 950.01 | 944.77
x2 = 0.8035 | 993.74 | 988.36 | 982.98 | 977.6 | 972.23 | 966.86 | 961.5
x2 = 0.8708 | 1008.47 | 1002.99 | 997.51 | 992.03 | 986.56 | 981.09 | 975.62
x2 = 0.9324 | 1022.71 | 1017.15 | 1011.59 | 1006.03 | 1000.48 | 994.93 | 989.38
